This note sets out measurements from ChEMBL document CHEMBL1158203, “A novel monogalactosylacylglycerol with inhibitory effect on platelet aggregation from the cyanophyceae Oscillatoria rosea” (J Nat Prod, 1996).

In experiment [1] the test system is Platelet. The experiment can be described thus: Inhibition of thrombin-induced platelet aggregation in rabbit platelet-rich plasma at 100 ug/mL by turbidimetric method. The following applies: Oryctolagus cuniculus. Type of experiment: functional, cell-free.
Experiment [2] deals with Platelet. Nature of the experiment: Inhibition of ionomycin-induced platelet aggregation in rabbit platelet-rich plasma at 100 ug/mL by turbidimetric method. Type of experiment: functional, cell-free. The following applies: Oryctolagus cuniculus.
Experiment [3] concerns Platelet. The experiment can be described thus: Inhibition of U46619-induced platelet aggregation in rabbit platelet-rich plasma at 100 ug/mL by turbidimetric method. Type of experiment: functional, cell-free. The following applies: Oryctolagus cuniculus.
Experiment [4] deals with P388. Nature of the experiment: Cytotoxicity against mouse P388 cells by MTT assay. Type of experiment: functional.
Experiment [5] relates to Platelet. Nature of the experiment: Inhibition of U46619-induced platelet aggregation in rabbit platelet-rich plasma by turbidimetric method. Type of experiment: functional, cell-free. The conditions noted are these: Oryctolagus cuniculus.

Activity calls are given as the source filed them. The rule behind the calls is not given here. Some results are limits rather than exact numbers.

`CCCCCCCCCCCCCC(=O)OC[C@@H](O)COP(=O)([O-])OCC[N+](C)(C)C`: the outcome in experiment [1], in experiment [2] and in experiment [3] was Active.

On to `CCCCCCCCCCCCCCCC(=O)OC[C@@H](O)CO[C@@H]1O[C@H](CO)[C@H](O)[C@H](O)C1O` (single isomer, unassigned), for which the outcome in experiment [1] and in experiment [2] was inactive. In experiment [4], this compound displayed an Activity greater than 50 µg/mL. The same compound returned an IC50 in experiment [5] of 60 µM. The result in experiment [3] was Active.
